# Patent US20090312556A1, “N-(2-AMINIPHENYL)-4-(5-((ETHYLAMINO)METHYL)-1,2-THIAZOL-2-YL) BENZAMIDE AND N-(2-AMINOPHENYL)-4-(5-((ISOPROPYLAMINO)METHYL)-1,2-THIAZOL-2-YL) BENZAMIDE AS HDAC INHIBITORS” (ASTRAZENECA R& D ALDERLY, priority 2004, published 2009)
# Assays:
# [1] = target: T1, recombinant human HDAC1 (Homo sapiens, UniProt Q13547); assay: In vitro enzyme assay of recombinant HDAC1; assay type: biochemical; settings: recombinant human HDAC1, acetylated histone H4 peptide; read-out: IC50 (nM) Test (a) (In vitro assay for the inhibition of HDAC1)
# T1 construct: FLAG (C); made in house; host or cells: Hi5 insect cells
# T1 sequence (Q13547 whole entry): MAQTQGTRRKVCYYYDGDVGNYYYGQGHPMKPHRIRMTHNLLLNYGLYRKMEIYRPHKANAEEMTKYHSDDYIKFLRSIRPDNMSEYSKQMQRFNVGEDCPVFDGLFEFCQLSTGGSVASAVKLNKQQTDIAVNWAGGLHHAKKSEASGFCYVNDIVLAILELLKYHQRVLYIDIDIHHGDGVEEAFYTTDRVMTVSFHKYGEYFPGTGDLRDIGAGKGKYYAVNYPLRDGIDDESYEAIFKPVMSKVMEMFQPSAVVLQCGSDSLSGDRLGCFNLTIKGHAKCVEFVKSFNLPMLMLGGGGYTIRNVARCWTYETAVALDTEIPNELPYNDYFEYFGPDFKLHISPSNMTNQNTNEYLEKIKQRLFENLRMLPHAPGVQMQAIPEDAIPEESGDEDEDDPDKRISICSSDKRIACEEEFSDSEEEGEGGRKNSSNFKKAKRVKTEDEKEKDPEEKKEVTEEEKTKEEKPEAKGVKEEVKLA
# Procedure: HDAC inhibitors were screened against recombinant human HDAC1 produced in Hi5 insect cells. The enzyme was cloned with a FLAG tag at the C-terminal of the gene and affinity purified using Anti-FLAG M2 agarose from SIGMA (A2220).
# The deacetylase assays were carried out in a 50 μl reaction. HDAC1 (75 ng of enzyme) diluted in 15 μl of reaction buffer (25 mM TrisHCl (pH 8), 137 mM NaCl, 2.7 mM KCl, 1 mM MgCl2) was mixed with either buffer alone (10 μl) or buffer containing compound (10 μl) for 30 minutes at ambient temperature. 25 μM acetylated histone H4 peptide (KI 174 Biomol) diluted in 25 μl of buffer was then added to the reaction and incubated for one hour at ambient temperature. The reaction was stopped by addition of an equal volume (50 μl) of Fluor de Lys developer (Biomol) containing Trichostatin A at 2 μM. The reaction was allowed to develop for 30 minutes at ambient temperature and then fluorescence measured at an excitation wavelength of 360 nm and an emission wavelength of 465 nm. IC50 values for HDAC enzyme inhibitors were determined by performing dose response curves with individual compounds and determining the concentration of inhibitor producing fifty percent decrease in the maximal signal (diluent control).
# [2] = tested on: HCT116 cells; assay: In vitro assay of inhibition of proliferation in whole cells (MTS); assay type: cell-based; settings: Homo sapiens, HCT-116, 72 hours, read-out: IC50 (nM) Test (b) (In vitro assay for the inhibition of whole cell proliferation)
# Procedure: Inhibition of proliferation in whole cells was assayed using the Promega cell titer 96 aqueous proliferation assay (Promega #G5421). HCT116 cells were seeded in 96 well plates at 1×10^3 cells/well, and allowed to adhere overnight. They were treated with inhibitors for 72 hours. 20 μl of the tetrazolium dye MTS was added to each well and the plates were re-incubated for 3 hours. Absorbance was then measured on a 96 well plate reader at […]. The IC50 values for HDAC inhibitors were determined by performing dose response curves with individual compounds and determining the concentration of inhibitor producing fifty percent decrease in the maximal signal (diluent control).
smiles,measurement,setting,value
"CC(C)NCc1cnc(-c2ccc(C(=O)Nc3ccccc3N)cc2)s1 [Example 1, N-(2-aminophenyl)-4-{5-[(isopropylamino)methyl]-1,3-thiazol-2-yl}benzamide]",IC50,[1],29 nM
same,IC50,[2],183 nM
